# Data: US4115385A, “Antibacterial 3-(5-tetrazolyl) penam compounds” (Pfizer Inc., priority 1977, dated 1978)
# Where two headings read alike, the source gives them in different places.
# Legend:
# [1] = test system: Staphylococcus aureus; assay: In vitro minimum inhibitory concentration (MIC) vs. Staph. aureus; assay type: cell-based; conditions: for MIC: Staphylococcus aureus
# Procedure: The antibacterial penam compounds of the instant invention show activity against a wide variety of gram-positive and gram-negative bacteria. […] The broth is inoculated with the bacterial culture, and with the test antibiotic, and then it is incubated overnight. On the next day, the test is read visually. The minimum inhibitory concentration (MIC) is the lowest concentration of antibiotic which prevents turbidity, i.e., which prevents growth of the microorganism. In vitro activities of several of the penam compounds of the invention are presented later in this specification.
# In Table II, the minimum inhibitory concentrations (MIC's) of compounds of formula I, wherein R^2 is hydrogen, against a strain of Streptococcus pyogenes, are reported; and in Table III, minimum inhibitory concentrations of compounds of formula I, wherein R^2 is hydrogen, against a strain of Staphylococcus aureus, are presented. Because of the tautomeric nature of such tetrazole derivatives, referred to hereinbefore,each of the preparations tested also contains some of the corresponding compound of formula II, wherein R^3 is hydrogen.
# [2] = test system: Staphylococcus aureus; assay: In vivo protection of mice against systemic infection by Staphylococcus aureus; conditions: multiple dosing
# Procedure: (§1) The antibacterial penam compounds of the instant invention are also active in vivo. In determining such activity, the test antibiotic is administered to infected mice, using a multiple dosing regimen. The severity of the infection varies from about one to about ten times that needed to kill 100% of the mice under the conditions of the test. At the end of the test, the activity of a compound is assessed by counting the number of survivors among the treated animals. Both the subcutaneous (SC) and the oral (PO) dosage routes are used. Results are given in Table I for two of the compounds of the invention. The ability of the compounds to protect mice against systemic infections caused by a lethal intraperitoneal inoculum of Staphylococcus aureus or of Escherichia coli is presented.
# [3] = test system: Escherichia coli; assay: In vivo protection of mice against systemic infection by Escherichia coli; conditions: multiple dosing
# Procedure: as §1
# [4] = test system: Streptococcus pyogenes; assay: In vitro minimum inhibitory concentration (MIC) vs. Strep. pyogenes; assay type: cell-based; conditions: Streptococcus pyogenes; Table II; two-fold serial dilution, Brain-Heart Infusion broth, overnight; read-out: MIC vs. Strep. pyogenes
# How it was run: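 Broth inoculated with bacteria and test antibiotic, incubated overnight and read visually; MIC is the lowest concentration preventing turbidity. Test preparations also contain some of the corresponding tetrazole tautomer.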
# [5] = Table III, two-fold serial dilution, Brain-Heart Infusion broth, overnight, read-out: MIC vs. Staph. aureus
# [6] = Table IV, values marked *, read-out: MIC against Staph. aureus
"MIC [1, 5]",Structure (SMILES),further results
< 0.1 µg/mL,COc1ccc([C@@H](N)C(=O)N[C@@H]2C(=O)N3[C@@H]2SC(C)(C)[C@@H]3c2nnn[nH]2)cc1 [D-2-amino-2-(p-methoxyphenyl)acetyl],–
3.12 µg/mL,CC1(C)S[C@@H]2[C@H](NC(=O)[C@H](NC(=O)CC3=NCCN3)c3ccccc3)C(=O)N2[C@H]1c1nnn[nH]1,–
12.5 µg/mL,"CC1(C)S[C@@H]2[C@H](NC(=O)[C@H](NC(=O)CC(=N)N)c3ccccc3)C(=O)N2[C@H]1c1nn[nH]n1 [D-2-(2-[guanyl]acetamido)-2-phenylacetyl, 6-(D-2-[2-Guanylacetamido]-2-phenylacetamido)-2,2-dimethyl-3-(5-tetrazolyl)penam]",–
6.25 µg/mL,CC1(C)S[C@@H]2[C@H](NC(=O)[C@H](N)Cc3c[nH]c4ccccc34)C(=O)N2[C@H]1c1nnn[nH]1 [D-2-amino-3-(3-indolyl)propionyl],–
0.39 µg/mL,CC1(C)S[C@@H]2[C@H](NC(=O)[C@H](NS(=O)(=O)Cc3ccccc3)c3ccccc3)C(=O)N2[C@H]1c1nn[nH]n1,–
1.56 µg/mL,CC1(C)S[C@@H]2[C@H](NC(=O)[C@H](NS(=O)(=O)c3ccc([N+](=O)[O-])cc3)c3ccccc3)C(=O)N2[C@H]1c1nn[nH]n1,–
–,"CC1(C)S[C@@H]2[C@H](N3C(=O)[C@@H](c4ccccc4)NC3(C)C)C(=O)N2[C@H]1c1nnn[nH]1 [6-(2,2-Dimethyl-5-oxo-4-phenyl-1-imidazolidinyl)-2,2-dimethyl-3-(5-tetrazolyl)penam]","MIC [1, 6]: 1.56 µg/mL"
1.56 µg/mL,CC(=N)NCC(=O)N[C@@H](C(=O)N[C@@H]1C(=O)N2[C@@H]1SC(C)(C)[C@@H]2c1nnn[nH]1)c1ccccc1,–
200 µg/mL,CC1(C)S[C@@H]2[C@H](NC(=O)CN)C(=O)N2[C@H]1c1nnn[nH]1 [2-aminoacetyl],–
50 µg/mL,CC(C)C(NC(=N)c1ccncc1)C(=O)N[C@@H]1C(=O)N2[C@@H]1SC(C)(C)[C@@H]2c1nnn[nH]1 (stereo partly drawn),–
0.78 µg/mL,CCCS(=O)(=O)N[C@@H](C(=O)N[C@@H]1C(=O)N2[C@@H]1SC(C)(C)[C@@H]2c1nn[nH]n1)c1ccccc1 [D-2-(propanesulfonamido)-2-phenylacetyl],–
< 0.1 µg/mL,"CC1(C)S[C@@H]2[C@H](NC(=O)[C@H](O)c3ccccc3)C(=O)N2[C@H]1c1nnn[nH]1 [D-2-hydroxy-2-phenylacetyl, 6-(D-2-Hydroxy-2-phenylacetamido)-2,2-dimethyl-3-(5-tetrazolyl)penam]",–
1.56 µg/mL,CC1(C)S[C@@H]2[C@H](NC(=O)[C@H](NC(=O)CNC(=O)c3cc(Br)cc(Br)c3)c3ccccc3)C(=O)N2[C@H]1c1nnn[nH]1,–
< 0.1 µg/mL,"CC1(C)S[C@@H]2[C@H](NC(=O)[C@H](N)c3ccsc3)C(=O)N2[C@H]1c1nnn[nH]1 [D-2-amino-2-(3-thienyl)acetyl, 6-(D-2-Amino-2-[3-thienyl]acetamido)-2,2-dimethyl-3-(5-tetrazolyl)penam]",Percentage Protection S. aureus ([2]; 6 mg./kg. SC): 50%; Percentage Protection S. aureus ([2]; 12 mg./kg. SC): 50%; Percentage Protection S. aureus ([2]; 25 mg./kg. SC): 60%; Percentage Protection S. aureus ([2]; 50 mg./kg. SC): 40%; Percentage Protection E. coli ([3]; 25 mg./kg. SC): 20%; Percentage Protection E. coli ([3]; 50 mg./kg. SC): 20%; Percentage Protection E. coli ([3]; 200 mg./kg. PO): 0%
1.56 µg/mL,CC1(C)S[C@@H]2[C@H](NC(=O)[C@H](NS(=O)(=O)c3ccc(Cl)cc3)c3ccccc3)C(=O)N2[C@H]1c1nn[nH]n1,–
–,"CC1(C)S[C@@H]2[C@H](N3C(=O)[C@@H](c4ccc(O)cc4)NC3(C)C)C(=O)N2[C@H]1c1nnn[nH]1 [6-(2,2-Dimethyl-5-oxo-4-[p-hydroxyphenyl]-1-imidazolidinyl)-2,2-dimethyl-3-(5-tetrazolyl)penam]","MIC [1, 6]: 0.78 µg/mL"
1.56 µg/mL,"CC1(C)S[C@@H]2[C@H](NC(=O)[C@H](NS(C)(=O)=O)c3ccccc3)C(=O)N2[C@H]1c1nn[nH]n1 [D-2-(methanesulfonamido)-2-phenylacetyl, 6-(D-2-Methanesulfonamido-2-phenylacetamido)-2,2-dimethyl-3-(5-tetrazolyl)penam]",–
< 0.1 µg/mL,"CC1(C)S[C@@H]2[C@H](NC(=O)[C@@H](O)c3ccccc3)C(=O)N2[C@H]1c1nnn[nH]1 [L-2-hydroxy-2-phenylacetyl, 6-(L-2-Hydroxy-2-phenylacetamido)-2,2-dimethyl-3-(5-tetrazolyl)penam]",–
6.25 µg/mL,Cc1ccc(S(=O)(=O)NC(=O)N[C@@H](C(=O)N[C@@H]2C(=O)N3[C@@H]2SC(C)(C)[C@@H]3c2nn[nH]n2)c2ccccc2)cc1,–
0.78 µg/mL,CC(=O)N[C@@H](C(=O)N[C@@H]1C(=O)N2[C@@H]1SC(C)(C)[C@@H]2c1nnn[nH]1)c1ccccc1 [D-2-(acetamido)-2-phenylacetyl],–
0.78 µg/mL,CC1(C)S[C@@H]2[C@H](NC(=O)[C@H](NC(=S)NC(=O)c3ccco3)c3ccccc3)C(=O)N2[C@H]1c1nn[nH]n1,–
–,"CN(C)C=NCC(=O)N[C@@H](C(=O)NC1C(=O)N2C1SC(C)(C)C2c1nnn[nH]1)c1ccccc1 (stereo partly drawn) [6-(D-2-[2-(dimethylaminoethyleneamino)acetamido]-2-phenylacetamido-2,2-dimethyl-3-(5-tetrazolyl)penam]","MIC vs. Staph. aureus ([1]; Table III, two-fold serial dilution, Brain-Heart Infusion broth, overnight): 6.25 µg/mL"
50 µg/mL,CC1(C)S[C@@H]2[C@H](NC(=O)[C@H](NC(=O)CNC(=N)c3ccc[nH]3)c3ccccc3)C(=O)N2[C@H]1c1nnn[nH]1,–
–,"CC1(C)S[C@@H]2[C@H](NC(=O)[C@H](N)c3ccc(O)cc3)C(=O)N2[C@H]1c1nnn[nH]1 [D-2-amino-2-(p-hydroxyphenyl)acetyl, 6-(D-2-Amino-2-[4-hydroxyphenyl]acetamido)-2,2-dimethyl-3-(5-tetrazolyl)penam]",Percentage Protection S. aureus ([2]; 6 mg./kg. SC): 50%; Percentage Protection S. aureus ([2]; 12 mg./kg. SC): 50%; Percentage Protection S. aureus ([2]; 25 mg./kg. SC): 70%; Percentage Protection S. aureus ([2]; 50 mg./kg. SC): 80%; Percentage Protection E. coli ([3]; 25 mg./kg. SC): 80%; Percentage Protection E. coli ([3]; 50 mg./kg. SC): 100%; Percentage Protection E. coli ([3]; 200 mg./kg. PO): 100%; MIC [4]: < 0.1 µg/mL
100 µg/mL,"CC1(C)S[C@@H]2[C@H](NC(=O)C(NC(=O)CSc3ccncc3)c3ccccc3)C(=O)N2[C@H]1c1nn[nH]n1 (stereo partly drawn) [6-(2-[2-(4-Pyridylthio)acetamido]-2-phenylacetamido)-2,2-dimethyl-3-(5-tetrazolyl)penam]",–
